Experimental findings from patent US11518758B2, “Heteroarylaminopyrimidine amide autophagy inhibitors and methods of use thereof” (Deciphera Pharmaceuticals, LLC, priority 2019, dated 2022) are described below.

For one assay, the target named is T1, ULK1 kinase (Homo sapiens, UniProt O75385).
T1 construct: purchased Eurofins 14-959
T1 sequence (O75385 with tags, fused parts or gaps): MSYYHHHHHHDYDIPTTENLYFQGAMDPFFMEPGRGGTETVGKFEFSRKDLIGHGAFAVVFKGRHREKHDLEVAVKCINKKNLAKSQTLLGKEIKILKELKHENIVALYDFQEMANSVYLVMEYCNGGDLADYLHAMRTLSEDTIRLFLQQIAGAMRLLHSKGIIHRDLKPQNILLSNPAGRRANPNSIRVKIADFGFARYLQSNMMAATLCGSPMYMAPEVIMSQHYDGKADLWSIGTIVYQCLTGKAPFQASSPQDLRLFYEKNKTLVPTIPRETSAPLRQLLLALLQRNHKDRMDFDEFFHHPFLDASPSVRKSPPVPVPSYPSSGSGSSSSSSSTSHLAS
Briefly: Biochemical assay for ULK1.2 (coupled pyruvate kinase/lactate dehydrogenase assay). The following applies: 19 nM ULK1 (Eurofins), myelin basic protein, 1 mM ATP. The method, then:
Example 174. Biochemical Assay for ULK1.2
Activity of ULK1 kinase was determined spectroscopically using a coupled pyruvate kinase/lactate dehydrogenase assay that continuously monitors the ATP hydrolysis-dependent oxidation of NADH (e.g., Schindler et al. Science (2000) 289: 1938-1942). Assays were conducted in 384-well plates (100 uL final volume) using 19 nM ULK1 (Eurofins CAT #14-959), 0.25 mg/mL myelin basic protein, 1.5 units pyruvate kinase, 2.1 units lactate dehydrogenase, 1 mM phosphoenol pyruvate, 0.28 mM NADH and 1 mM ATP in assay buffer (100 mM Tris, pH 7.5, 15 mM MgCl2, 0.5 mM DTT, 0.1% octyl-glucoside, 0.002% (w/v) BSA, and 0.002% Triton X-100). Inhibition of ULK1 was measured by adding serial diluted test compound (final assay concentration of 1% DMSO). A decrease in absorption at 340 nm was monitored continuously for 6 hours at 30° C. on a multi-mode microplate reader (BioTek). The reaction rate was calculated using the 2-3 h time frame. The reaction rate at each concentration of compound was converted to percent inhibition using controls (i.e. reaction with no test compound and reaction with a known inhibitor) and IC50 values were calculated by fitting a four-parameter sigmoidal curve to the data using Prism (GraphPad software).

In assay [1] the test system is phospho-Serine 318 ATG13 (pATG13), ULK kinase substrate, in A549 (KRAS mutant) cells. Kind of assay: pATG13 levels of mutant KRas A549 cells after treatment with ULK inhibitors in combination with trametinib (ELISA). Type of assay: cell-based, human. The settings on record: with 250 nM trametinib. As to the method:
Example 177. Cellular Inhibition of ULK Kinase Substrate ATG13 Protein pATG13 Levels of Mutant KRas A549 Cells after Treatment with ULK Inhibitors in Combination with Trametinib
A549 (KRAS mutant) human lung cancer cells (6,000 cells/well) were added to a 384-well tissue-culture treated plate in 50 μL of pre-warmed DMEM medium supplemented with 10% characterized fetal bovine serum (Invitrogen, Carlsbad, Calif.), 100 units/mL penicillin G, and 100 μg/mL streptomycin and allowed to grow overnight at 37° C., 5% CO2, and 95% humidity. The following day, 10 μL of media containing trametinib or DMSO as a control was added to wells. The final concentration of trametinib in wells was 250 nM. A dose response of a test compound (0.6 μL per well) was added. DMSO (0.6 μL) was added to control wells. The plate was briefly shaken to mix wells and then incubated at 37° C. overnight. The next day, the media was aspirated and cells were washed with Dulbecco's Phosphate Buffered Saline (Gibco). Cells were lysed using MPER lysis buffer (Pierce, Rockford, Ill.) containing Halt Phosphatase and Protease Inhibitors (Pierce, Rockford, Ill.) and Phosphatase inhibitor cocktail 2 (Sigma, St. Louis, Mo.) at 4° C. for 10 minutes with shaking.
Cellular levels of phospho-Serine 318 ATG13 (pATG13) were measured via an ELISA method. Total ATG13 Antibody (Cell Signaling Cat #13273) was used to coat the wells. The plate was incubated at 4° C. overnight and washed with ELISA wash buffer (Biolegend Cat #421601). The wells were then blocked with assay diluent (Biolegend Cat #421203) for 1 hour at room temperature. Plate wells were washed with ELISA wash buffer. Cell lysate was added to wells and incubated at room temperature for 2 hours. Plate wells were washed with ELISA wash buffer. Biotinylated pS318-ATG13 antibody (Rockland Immunochemicals Cat #600-401-C49) was diluted in assay diluent and added to each well and incubated at room temperature for 1 hour. Plate wells were washed with ELISA wash buffer. Streptavidin linked to horseradish peroxidase (Thermo Fisher Cat #21140) was diluted in assay diluent and added to each well and incubated at room temperature for 1 hour. Plate wells were washed with ELISA wash buffer. High sensitivity TMB substrate (Biolegend Cat #421101) was added to each well and incubated at room temperature for 20 minutes. The reaction was stopped with 2N Sulfuric Acid. The plate was analyzed at on a plate reader measuring absorbance at 450 nm and 540 nm (background). Signal was calculated by first subtracting the background absorbance at 540 nm from the absorbance at 450 nm for each well. Next, the background corrected absorbance at 450 nm from blank wells was subtracted from test wells. Data was compared to control wells to determine % ATG13 phosphorylation. GraphPad Prism was used to calculate IC50 values.
For orientation: In an ELISA, binding on a coated surface is turned into a signal by an enzyme label.

For another assay, the target named is T2, LRRK2 kinase (Homo sapiens, UniProt Q5S007).
T2 construct: purchased Thermo Fisher
Briefly: Biochemical assay for LRRK2 (coupled pyruvate kinase/lactate dehydrogenase assay). The settings on record: 26.4 nM LRRK2 (residues 970-2528), 0.1 mM peptide substrate, 1 mM ATP. The method, then:
Example 182. Biochemical Assay for LRRK2 (SEQ. ID NO. 4)
Activity of LRRK2 kinase was determined spectroscopically using a coupled pyruvate kinase/lactate dehydrogenase assay that continuously monitors the ATP hydrolysis-dependent oxidation of NADH (e.g., Schindler et al. Science (2000) 289: 1938-1942). Assays were conducted in 384-well plates (100 uL final volume) using 26.4 nM LRRK2 (Thermo Fisher), 0.1 mM peptide substrate (RLGRDKYKTLRQIRQ (SEQ ID NO: 6)), 1.5 units pyruvate kinase, 2.1 units lactate dehydrogenase, 1 mM phosphoenol pyruvate, 0.28 mM NADH and 1 mM ATP in assay buffer (100 mM Tris, pH 7.5, 15 mM MgCl2, 0.5 mM DTT, 0.004% (w/v) BSA, and 0.004% Triton X-100). Inhibition of LRRK2 was measured by adding serial diluted test compound (final assay concentration of 1% DMSO). A decrease in absorption at 340 nm was monitored continuously for 6 hours at 30° C. on a multi-mode microplate reader (BioTek). The reaction rate was calculated using the 2-3 h time frame. The reaction rate at each concentration of compound was converted to percent inhibition using controls (i.e. reaction with no test compound and reaction with a known inhibitor) and IC50 values were calculated using software routines in Prism (GraphPad software).

T2 sequence (Q5S007 with tags, fused parts or gaps): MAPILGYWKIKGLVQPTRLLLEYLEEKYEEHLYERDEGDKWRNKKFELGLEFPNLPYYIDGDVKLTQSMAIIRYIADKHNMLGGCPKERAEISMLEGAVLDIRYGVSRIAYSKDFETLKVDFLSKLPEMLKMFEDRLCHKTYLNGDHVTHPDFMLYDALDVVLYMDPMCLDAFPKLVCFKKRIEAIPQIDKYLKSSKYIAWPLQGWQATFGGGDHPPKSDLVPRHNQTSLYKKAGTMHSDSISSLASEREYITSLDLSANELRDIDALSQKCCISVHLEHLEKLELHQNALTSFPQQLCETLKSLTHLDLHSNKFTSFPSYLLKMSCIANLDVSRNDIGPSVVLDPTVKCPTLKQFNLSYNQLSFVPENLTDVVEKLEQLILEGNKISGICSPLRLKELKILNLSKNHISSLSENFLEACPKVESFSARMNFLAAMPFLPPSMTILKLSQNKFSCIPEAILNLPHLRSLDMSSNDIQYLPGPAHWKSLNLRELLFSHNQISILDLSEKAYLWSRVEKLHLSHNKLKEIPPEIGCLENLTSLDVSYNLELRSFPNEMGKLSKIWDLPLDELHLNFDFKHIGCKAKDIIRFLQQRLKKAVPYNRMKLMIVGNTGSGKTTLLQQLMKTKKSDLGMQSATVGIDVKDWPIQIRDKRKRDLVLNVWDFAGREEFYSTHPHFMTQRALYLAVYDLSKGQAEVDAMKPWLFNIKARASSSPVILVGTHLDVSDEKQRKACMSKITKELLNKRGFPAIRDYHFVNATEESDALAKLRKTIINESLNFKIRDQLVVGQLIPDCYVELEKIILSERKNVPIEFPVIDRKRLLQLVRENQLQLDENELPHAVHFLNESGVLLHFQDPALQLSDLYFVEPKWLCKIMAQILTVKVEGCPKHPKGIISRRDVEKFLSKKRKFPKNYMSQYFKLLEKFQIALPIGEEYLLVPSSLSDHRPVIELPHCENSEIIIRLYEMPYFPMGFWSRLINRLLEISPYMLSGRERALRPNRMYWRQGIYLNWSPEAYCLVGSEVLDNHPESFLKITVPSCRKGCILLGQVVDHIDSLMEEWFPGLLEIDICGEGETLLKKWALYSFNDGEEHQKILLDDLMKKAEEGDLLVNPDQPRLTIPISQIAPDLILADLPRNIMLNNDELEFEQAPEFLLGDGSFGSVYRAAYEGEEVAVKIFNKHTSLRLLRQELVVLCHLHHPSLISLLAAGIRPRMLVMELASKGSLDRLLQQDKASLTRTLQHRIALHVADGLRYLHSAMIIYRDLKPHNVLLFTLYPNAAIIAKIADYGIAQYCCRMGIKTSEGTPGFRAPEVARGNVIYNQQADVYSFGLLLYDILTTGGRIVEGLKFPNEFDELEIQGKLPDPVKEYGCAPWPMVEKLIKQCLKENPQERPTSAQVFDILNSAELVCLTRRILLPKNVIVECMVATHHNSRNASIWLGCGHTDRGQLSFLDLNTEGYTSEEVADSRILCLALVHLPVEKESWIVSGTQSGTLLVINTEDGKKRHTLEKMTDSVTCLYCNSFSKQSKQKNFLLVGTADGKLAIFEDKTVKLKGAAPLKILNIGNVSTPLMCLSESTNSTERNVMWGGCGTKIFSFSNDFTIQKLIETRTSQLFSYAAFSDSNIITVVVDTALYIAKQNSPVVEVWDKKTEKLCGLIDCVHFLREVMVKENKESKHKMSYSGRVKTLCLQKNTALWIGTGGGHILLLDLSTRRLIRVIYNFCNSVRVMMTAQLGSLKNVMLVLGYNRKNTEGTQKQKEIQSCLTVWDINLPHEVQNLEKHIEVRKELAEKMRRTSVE

What is called IC50 is the concentration at which inhibition is half-maximal. `CC(C)CN1CC(n2cc(Nc3ncc(Br)c(NCCCN4CCCCC4=O)n3)cn2)C1` [Example 17]: the IC50 is 0.025 to 0.1 µM at ULK1 kinase and 0.1 to 0.3 µM in assay [1].

On to `CC(C)CN1CC(n2cc(Nc3ncc(Cl)c(NCCCN4CCCC4=O)n3)cn2)C1` [Example 159], for which the results for the IC50 on LRRK2 kinase and at ULK1 kinase were > 0.6 µM and > 0.5 µM, respectively.

On to `CN1CCC(n2cc(Nc3ncc(C4CC4)c(NCCCN4CCCC4=O)n3)cn2)CC1` [Example 84], for which the IC50 was > 0.6 µM at LRRK2 kinase and 0.1 to 0.5 µM at ULK1 kinase.

On to `[2H]C([2H])([2H])C([2H])(N1CCC(n2cc(Nc3ncc(C(F)(F)F)c(NCCCN4CCCCC4=O)n3)cn2)CC1)C([2H])([2H])[2H]` [Example 13], for which the results for the IC50 (against ULK1 kinase; in assay [1]) were 0.001 to 0.025 µM and 0.1 to 0.3 µM, respectively.

Take `Cc1nn(CCN2CCOCC2)cc1Nc1ncc(C(F)(F)F)c(NCCCN2CCCCC2=O)n1` [Example 29]: the figures for the IC50 at LRRK2 kinase and against ULK1 kinase were > 0.6 µM and > 0.5 µM, respectively.

Turning to `Cc1nn(C2CCN(C(C)C)CC2)cc1Nc1ncc(Cl)c(NCCCN2CCCOCC2=O)n1` [Example 110], the IC50 was 0.1 to 0.3 µM against LRRK2 kinase and > 0.5 µM against ULK1 kinase.

`Cc1nn(C2CCN(C)CC2)cc1Nc1ncc(Cl)c(NCCCN2CCCCC2=O)n1` [Example 56]: the IC50 was > 0.6 µM against LRRK2 kinase and 0.1 to 0.5 µM on ULK1 kinase.

As for `CCC(C)N1CCC(n2cc(Nc3ncc(C(F)(F)F)c(NCCCN4CCCCCC4=O)n3)c(C)n2)CC1` (stereo not drawn) [Example 94], the IC50 at ULK1 kinase is 0.001 to 0.025 µM; in assay [1] it was 0.01 to 0.1 µM.

On to `CC1(C)CCC(=O)N1CCCNc1nc(Nc2cnn(C3CCN(C4CC4)CC3)c2)ncc1C1CC1` [Example 69], for which the values for the IC50 against LRRK2 kinase and at ULK1 kinase were > 0.6 µM and > 0.5 µM, respectively.

Consider `CC1(C)CCN(CCCNc2nc(Nc3cnn(C4CCN(C5CC5)CC4)c3)ncc2Br)C1=O` [Example 153], for which the figures for the IC50 on LRRK2 kinase and against ULK1 kinase were 0.3 to 0.6 µM and 0.1 to 0.5 µM, respectively.

For the compound `CC(C)CN1CC(n2cc(Nc3ncc(C(F)(F)F)c(NCCCN4CCCCC4=O)n3)cn2)C1` [Example 12], the IC50 against ULK1 kinase lay in the range of 0.025 to 0.1 µM; in assay [1] it was 0.3 to 0.6 µM.

Consider `Cc1nn(C2CCN(C)CC2)cc1Nc1ncc(Cl)c(NCCCN2CCOCCC2=O)n1` [Example 132], for which the IC50 against LRRK2 kinase is > 0.6 µM; at ULK1 kinase, 0.1 to 0.5 µM.

Take `CC(C)N1CCC(n2cc(Nc3ncc(C(F)(F)F)c(NCCCN4CCOCC4=O)n3)cn2)CC1` [Example 74]: the results for the IC50 (against ULK1 kinase; in assay [1]) were 0.025 to 0.1 µM and > 0.6 µM, respectively.

Turning to `CCN1CCC(n2cc(Nc3ncc(Cl)c(NCCCN4CCCCC4=O)n3)c(C)n2)CC1` [Example 58], the IC50 against ULK1 kinase is 0.1 to 0.5 µM; in assay [1], 0.3 to 0.6 µM.

Turning to `[2H]C([2H])([2H])N1CCC(n2cc(Nc3ncc(C(F)(F)F)c(NCCCN4CCCCC4=O)n3)c(C)n2)CC1` [Example 31], the IC50 against ULK1 kinase was in the range of 0.001 to 0.025 µM; in assay [1], 0.1 to 0.3 µM.

For `O=C1CCCCN1CCCNc1nc(Nc2cnn(C3CCNCC3)c2)ncc1Br` [Example 9], the IC50 against ULK1 kinase was 0.001 to 0.025 µM; in assay [1] it was > 0.6 µM.

With `Cc1nn(C2CCNCC2)cc1Nc1ncc(I)c(NCCCN2CCCCC2=O)n1` [Example 48], the IC50 against ULK1 kinase is 0.001 to 0.025 µM; in assay [1] it was > 0.6 µM.

With `Cc1nn(C2CCN(C)CC2)cc1Nc1ncc(C(F)(F)F)c(NCCCN2CCN(C)C2=O)n1` [Example 152], the IC50 on ULK1 kinase lay in the range of 0.025 to 0.1 µM; in assay [1] it was 0.1 to 0.3 µM.

For `O=C1CCCCN1CCCNc1nc(Nc2cnn(C3CCN(CC4CC4)CC3)c2)ncc1Cl` [Example 3], the IC50 on ULK1 kinase was 0.001 to 0.025 µM; in assay [1], 0.01 to 0.1 µM.

Take `Cc1nn(CCCN2CCCC2)cc1Nc1ncc(C(F)(F)F)c(NCCCN2CCCCC2=O)n1` [Example 20]: the IC50 against ULK1 kinase lay within 0.025 to 0.1 µM; in assay [1] it was 0.1 to 0.3 µM.

As to `CCN1CCC(n2cc(Nc3ncc(C(F)(F)F)c(NCCCN4CCCCCC4=O)n3)c(C)n2)CC1` [Example 90, 1-(3-((2-((1-(1-ethylpiperidin-4-yl)-3-methyl-1H-pyrazol-4-yl)amino)-5-(trifluoromethyl)pyrimidin-4-yl)amino)propyl)azepan-2-one], the values for the IC50 (on ULK1 kinase; in assay [1]) were 0.001 to 0.025 µM and 0.01 to 0.1 µM, respectively.
